# From US20100048530A1, “New 2-Azetidinone Derivatives As Cholesterol Absorption Inhibitors For The Treatment Of Hyperlipidaemic Conditions” (ASTRAZENECA AB, priority 2005, published 2010)
# System: C57BL/6 female mice
# Test: In vivo testing of cholesterol absorption inhibitors (A)
# Details: 0.2 μmol/kg, gavage, procedure A
# Procedure: In Vivo Testing of Cholesterol Absorption Inhibitors (A)
# C57BL/6 female mice were maintained on regular chow diet and housed in individual cages to collect faeces. Mice were fasted for 3 hours and then gavaged with vehicle or compound. Half an hour later the mice were gavaged with radiolabelled cholesterol. Six hours after the ^14C-cholesterol gavage blood samples were taken via the tail and plasma prepared to determine how much cholesterol were absorbed. 24 hours after the gavage of ^14C-cholesterol the mice were bled and plasma were prepared for analysis. Faeces were collected for 24 hours to assess absorption efficiency.
smiles,measurement,value
"O=C(O)CNC(=O)[C@@H](CC1CCCCC1)NC(=O)CNC(=O)COc1ccc([C@@H]2[C@@H](SCC(O)c3ccc4c(c3)OCCO4)C(=O)N2c2ccc(F)cc2)cc1 (stereo partly drawn) [Example 1, N-({4-[(2R,3R)-3-{[2-(2,3-dihydro-1,4-benzodioxin-6-yl)-2-hydroxyethyl]thio}-1-(4-fluorophenyl)-4-oxoazetidin-2-yl]phenoxy}acetyl)glycyl-3-cyclohexyl-D-alanylglycine]",inhibition of 14C-cholesterol absorption,43%
